Source: patent US6355669B1, “Retinoic acid agonists as preventive and therapeutic agents for nephritis” (Eisai Co., Ltd., priority 1997, dated 2002)

What was measured:
[1] = target: T1, human RARα (Homo sapiens, UniProt P10276); assay: RAR binding assay (inhibition of 3H-all-trans-retinoic acid binding), RAR-α; parameters: expressed in transfected cells; conditions: nuclear extract of BHK cells expressing human RARα, read-out: Receptor binding assay IC50 (nM) RAR-α
T1 sequence (P10276 1-462): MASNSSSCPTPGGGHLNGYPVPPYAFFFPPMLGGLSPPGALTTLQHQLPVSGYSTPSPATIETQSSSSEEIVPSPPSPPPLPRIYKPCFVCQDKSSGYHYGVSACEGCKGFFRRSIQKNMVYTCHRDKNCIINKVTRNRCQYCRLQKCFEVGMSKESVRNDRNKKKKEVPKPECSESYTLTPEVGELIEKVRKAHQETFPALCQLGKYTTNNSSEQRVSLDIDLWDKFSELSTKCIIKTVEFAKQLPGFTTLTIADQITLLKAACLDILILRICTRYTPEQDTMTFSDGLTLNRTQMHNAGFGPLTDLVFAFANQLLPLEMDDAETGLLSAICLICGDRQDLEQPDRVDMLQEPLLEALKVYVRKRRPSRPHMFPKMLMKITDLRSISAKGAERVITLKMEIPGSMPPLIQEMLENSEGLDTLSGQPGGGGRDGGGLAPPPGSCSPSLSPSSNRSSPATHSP
Experimental: (§1) Cells constantly expressing RARα, β and γ proteins were prepared by introducing human RARα, β and γ genes into BHK (baby hamster kidney) cells. A nuclear fraction of these cells was used to construct an experimental system for measuring the specific binding of all-trans-retinoic acid to RAR, and in this experimental system, the ability of each test compound to bind to […] was examined by measuring the degree of inhibition of binding. Further, the ability of each test compound to bind to each receptor subtype was compared to determine the selectivity of the compound for RAR subtype.
(§2) 5×10^8 BHK cells having the RAR gene introduced into them were suspended in 15 ml solution A (5 mM sodium phosphate (pH 7.4), 10 mM monothioglycerol, 10% (v/v) glycerol, 1 mM phenyl methyl sulfonyl fluoride (PMSF), 10 μg/ml aprotinin, 25 μg/ml leupeptin), then homogenized therein and centrifuged, and the supernatant was removed. The resulting pellet was suspended in 15 ml buffer B (10 mM Tris-HCl (pH 8.5), 10 mM monothioglycerol, 10% (v/v) glycerol, 1 mM PMSF, 10 μg/ml aprotinin, 25 μg/ml leupeptin, 0.4 M potassium chloride), then left at 4° C. for 1 hour and ultracentrifuged at 100,000×g, 4° C. for 1 hour. The resulting supernatant was frozen and stored as a nuclear extract fraction at −80° C. until use (Methods in Enzymology, 189, 248).
(§3) 180 μl of the extract fraction and 10 μl diluted solution of all-trans-retinoic acid or a test compound were added to each well on a 96-well plate made of polypropylene, and further 10 μl of 10 nM ^3H-all-trans-retinoic acid was added thereto and left at 4° C. for 16 hours. 3% charcoal-0.3% dextran solution was added to the reaction solution and centrifuged whereby free ^3H-all-trans-retinoic acid was separated, and the count in the supernatant was determined by a scintillation counter. The count when a 500-fold excess of non-labeled all-trans-retinoic acid was added was subtracted as unspecific binding from the value obtained, to determine the amount of each compound binding specifically to RAR.
(§4) The concentration (IC50) of each compound at which the binding of ^3H-all-trans-retinoic acid was inhibited by 50% was determined and the results are shown in Tables 3-1 and 3-2.

[2] = target: T2, human RARγ (Homo sapiens, UniProt P13631); assay: RAR binding assay (inhibition of 3H-all-trans-retinoic acid binding), RAR-γ; parameters: expressed in transfected cells; conditions: nuclear extract of BHK cells expressing human RARγ, read-out: Receptor binding assay IC50 (nM) RAR-γ
T2 sequence (P13631 1-454): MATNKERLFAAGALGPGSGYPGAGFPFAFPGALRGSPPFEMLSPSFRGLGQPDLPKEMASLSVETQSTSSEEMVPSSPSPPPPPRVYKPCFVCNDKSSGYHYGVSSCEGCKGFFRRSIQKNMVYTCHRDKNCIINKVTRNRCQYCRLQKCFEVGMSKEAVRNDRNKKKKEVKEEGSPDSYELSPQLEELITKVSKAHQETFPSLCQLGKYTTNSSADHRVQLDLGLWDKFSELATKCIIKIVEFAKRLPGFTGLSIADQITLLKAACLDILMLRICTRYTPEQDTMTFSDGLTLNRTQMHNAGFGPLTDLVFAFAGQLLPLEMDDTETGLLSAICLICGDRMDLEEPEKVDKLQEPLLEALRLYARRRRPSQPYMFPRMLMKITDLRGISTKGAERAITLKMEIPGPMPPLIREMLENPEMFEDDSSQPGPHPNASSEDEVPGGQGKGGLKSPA
Experimental: as §1, §2, §3, §4

[3] = target: T3, human RARβ (Homo sapiens, UniProt P10826); assay: RAR binding assay (inhibition of 3H-all-trans-retinoic acid binding), RAR-β; parameters: expressed in transfected cells; conditions: nuclear extract of BHK cells expressing human RARβ, read-out: Receptor binding assay IC50 (nM) RAR-β
T3 sequence (P10826 1-455): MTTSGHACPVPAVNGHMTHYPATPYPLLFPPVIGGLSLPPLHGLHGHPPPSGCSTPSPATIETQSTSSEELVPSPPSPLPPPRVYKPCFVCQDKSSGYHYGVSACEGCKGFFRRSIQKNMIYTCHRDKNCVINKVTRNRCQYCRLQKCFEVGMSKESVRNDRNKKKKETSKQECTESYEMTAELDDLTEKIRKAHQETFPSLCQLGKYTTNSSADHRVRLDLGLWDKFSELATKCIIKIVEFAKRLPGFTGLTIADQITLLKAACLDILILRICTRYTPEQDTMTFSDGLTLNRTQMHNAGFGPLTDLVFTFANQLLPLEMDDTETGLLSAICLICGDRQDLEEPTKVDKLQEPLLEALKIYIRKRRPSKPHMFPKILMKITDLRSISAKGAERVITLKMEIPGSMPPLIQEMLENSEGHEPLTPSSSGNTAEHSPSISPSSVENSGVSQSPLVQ
Experimental: as §1, §2, §3, §4

[4] = test system: anti-dinitrophenyl (DNP) IgG2a antibody titer; assay: Mouse model producing antibody (anti-DNP IgG2a antibody titer in serum, ELISA); assay type: in vivo, BALB/c mice; conditions: for effect on anti-DNP IgG2a: dose 0.1 mg/kg oral once every day for 10 days, 10th day after immunization
Experimental: BALB/c mice were immunized by administering dinitrophenylated keyhole limpet hemocyanin (DNP-KLH) as antigen intraperitoneally into them in a dose of 100 μg/mouse along with Freund's complete adjuvant. On the 10th day after the day on which the mice were immunized, blood was collected from the orbital venous plexus of the animals under anesthesia with ether and examined for anti-dintrophenyl (DNP) IgG2a antibody titer in serum by the ELISA method.
The test compounds B, E, F, G and H were suspended in 0.5% aqueous methyl cellulose solution and orally administered into the animals once every day for 10 days from the day when the animals were immunized with DNP-KLH. The medium was administered into the control group.

[5] = test system: accelerated Masugi nephritis; assay: Rat model with accelerated Masugi nephritis (proteins excreted in urine for 24 hours); assay type: in vivo, Sprague-Dawley strain rats; conditions: oral once every day, compared with the control group
Experimental: Sprague-Dawley strain rats were immunized by subcutaneously administering rabbit γ-globulin in a dose of 4 mg/rat along with Freund's complete adjuvant into the bottoms of their both hind legs. On the 5th day after the rats were immunized, 1 ml of anti-rat glomerular basement membrane rabbit serum diluted 6- or 8-fold was administered via tail veins into the animals. On the 8th day, the rats were forced to be orally administered 8 ml sterilized water and then placed in a metabolism cage, and their urine was collected for 24 hours during which the animals were allowed neither food nor water. As the indicator of the model with accelerated Masugi nephritis, the amount of proteins excreted in urine for 24 hours was used.
The medium was administered into the control group.

Row | Compound | IC50 [1] [nM] | IC50 [2] [nM] | IC50 [3] [nM] | further results
1 | Cc1ccc(C)c2c(F)c(-c3ccc(-c4ccc(C(=O)O)cc4)[nH]3)oc12 [drawing 12] | < 0.5 | 225 | 49 | –
2 | O=C(O)c1ccc(-c2ccc(-c3cc4c(Cl)ccc(Cl)c4o3)[nH]2)cc1 | 1 | > 500 | – | –
3 | CC1(C)CCCc2ncc(-c3ccc(-c4ccc(C(=O)O)cc4)[nH]3)nc21 [Compound E, 4-{2-{5-[2-(8,8-dimethyl-5,6,7,8-tetrahydroquinoxalynyl)]pyrrolyl}}benzoic acid] | – | – | – | effect on anti-DNP IgG2a [4]: significantly inhibited; Degree of Inhibition of Albuminuria (%) ([5]; dose 1.0 mg/kg, 1 mg/kg): 85.8%
4 | CC1CCCN(C)c2ccc(-c3ccc(-c4ccc(C(=O)O)cc4)[nH]3)cc21 (centres unmarked) [Compound F, 4-{2-{5-[7-(1,5-dimethyl-2,3,4,5-tetrahydro-1H-benzazepinyl)]pyrrolyl}}benzoic acid] | – | – | – | effect on anti-DNP IgG2a [4]: significantly inhibited; Degree of Inhibition of Albuminuria (%) ([5]; dose 1.0 mg/kg, 1 mg/kg): 71.1%
5 | C[Si](C)(C)c1cc(C(=O)Nc2ccc(C(=O)O)cc2)cc([Si](C)(C)C)c1 [Compound I, 4-{[(3,5-bistrimethylsilylphenyl)carbonyl]amino}benzoic acid] | – | – | – | Degree of Inhibition of Albuminuria (%) ([5]; dose 1.0 mg/kg, 1 mg/kg): 89.4%
6 | COCc1cc2c(cc1-c1ccc(-c3ccc(C(=O)O)cc3)[nH]1)C(C)(C)CCC2(C)C [drawing 18] | 10 | 83 | 230 | –
7 | CCc1ccc(C)c2cc(-c3ccc(-c4ccc(C(=O)O)cc4)[nH]3)oc12 [drawing 13] | < 0.5 | 270 | 160 | –
8 | CC1CCCN(C)c2ncc(-c3ccc(-c4ccc(C(=O)O)cc4)[nH]3)nc21 (centres unmarked) [drawing 16] | 1 | 130 | 58 | –
9 | O=C(O)c1ccc(-c2ccc(-c3cc4c(F)ccc(Cl)c4o3)[nH]2)cc1 | 3.8 | > 500 | > 500 | –
10 | C[Si](C)(C)c1cc(C(=O)Nc2ccc(C(=O)O)cc2)cc([Si](C)(C)C)c1 [drawing 19] | 6.4 | > 500 | > 500 | –
11 | CCn1nc(-c2ccc(-c3ccc(C(=O)O)cc3)[nH]2)cc1C(C)C [G] | – | – | – | effect on anti-DNP IgG2a [4]: significantly inhibited
12 | CCOC(=O)/C=C(C)/C=C/C=C(C)/C=C/c1c(C)cc(OC)c(C)c1C [etretinate, reference compound] | – | – | – | effect on production of anti-DNP antibody ([4]; 50 mg/kg, administered in the same manner as the test compounds): showed a tendency to inhibit
13 | COCc1cc2c(cc1-c1ccc(-c3ccc(C(=O)O)cc3)[nH]1)C(C)(C)CCC2(C)C [Compound H, 4-{2-[5-(3-methoxymethyl-5,6,7,8-tetrahydro-5,5,8,8-tetramethylnaphthalene-2-yl)pyrrolyl}}benzoic acid] | – | – | – | effect on anti-DNP IgG2a [4]: showed a tendency to inhibit; Degree of Inhibition of Albuminuria (%) ([5]; dose 0.3 mg/kg, 0.3 mg/kg): 61.3%
14 | CC1(C)CCC(C)(C)c2nc(-c3ccc(-c4ccc(C(=O)O)cc4)[nH]3)cnc21 [drawing 14] | 0.6 | 140 | 56 | –
15 | O=C(O)c1ccc(-c2ccc(-c3cc4c(C(F)(F)F)ccc(F)c4o3)[nH]2)cc1 [drawing 11] | 0.6 | 195 | 107 | –
16 | Cc1ccc(C)c2oc(-c3ccc(-c4ccc(C(=O)O)cc4)[nH]3)cc12 [drawing 8] | 1.4 | > 500 | 340 | –
